Active and inactive are the calls of the source.
Experiments:
[1] = molecular target: T1, Apoptotic protease-activating factor 1 (Homo sapiens, UniProt O14727); type: functional
T1 sequence (O14727 whole entry): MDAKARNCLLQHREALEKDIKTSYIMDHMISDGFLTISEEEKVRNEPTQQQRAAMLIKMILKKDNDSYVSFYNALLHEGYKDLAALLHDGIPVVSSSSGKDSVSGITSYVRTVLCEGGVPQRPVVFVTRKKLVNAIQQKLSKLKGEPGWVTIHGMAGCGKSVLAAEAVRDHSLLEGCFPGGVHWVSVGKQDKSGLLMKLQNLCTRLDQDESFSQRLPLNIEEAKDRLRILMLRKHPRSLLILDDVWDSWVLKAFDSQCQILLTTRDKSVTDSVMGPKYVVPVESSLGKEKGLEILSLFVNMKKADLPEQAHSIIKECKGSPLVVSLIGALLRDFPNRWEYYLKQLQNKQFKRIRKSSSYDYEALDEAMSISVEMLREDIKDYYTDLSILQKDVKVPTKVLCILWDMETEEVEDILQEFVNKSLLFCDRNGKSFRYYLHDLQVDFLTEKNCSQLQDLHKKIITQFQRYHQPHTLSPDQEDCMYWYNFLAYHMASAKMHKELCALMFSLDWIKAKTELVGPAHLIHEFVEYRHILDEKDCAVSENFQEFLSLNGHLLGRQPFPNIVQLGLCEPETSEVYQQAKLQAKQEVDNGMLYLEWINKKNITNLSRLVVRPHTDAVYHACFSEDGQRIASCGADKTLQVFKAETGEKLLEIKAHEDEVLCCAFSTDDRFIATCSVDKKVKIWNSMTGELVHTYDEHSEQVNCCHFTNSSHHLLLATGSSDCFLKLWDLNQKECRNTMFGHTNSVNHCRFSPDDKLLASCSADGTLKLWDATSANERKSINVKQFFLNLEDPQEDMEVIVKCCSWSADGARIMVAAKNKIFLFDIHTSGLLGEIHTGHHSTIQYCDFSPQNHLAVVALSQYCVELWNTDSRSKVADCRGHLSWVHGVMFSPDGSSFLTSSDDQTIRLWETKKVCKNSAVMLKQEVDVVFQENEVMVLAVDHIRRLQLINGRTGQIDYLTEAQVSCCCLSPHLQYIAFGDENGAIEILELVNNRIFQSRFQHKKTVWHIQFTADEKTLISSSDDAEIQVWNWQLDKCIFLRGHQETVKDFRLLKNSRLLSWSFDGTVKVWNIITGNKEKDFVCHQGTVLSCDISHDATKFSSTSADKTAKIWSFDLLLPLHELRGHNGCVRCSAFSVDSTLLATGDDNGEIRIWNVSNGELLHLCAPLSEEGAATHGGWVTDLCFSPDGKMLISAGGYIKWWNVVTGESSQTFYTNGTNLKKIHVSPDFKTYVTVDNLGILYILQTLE

[2] = tested on: Streptococcus sp. 'group A'; test: growth inhibition of control SK(-) GAS strain, dose response, counter-screen for streptokinase expression inhibitor project, luminescence, kanamycin, BacTiterGlo, confirmation (AID 1900); type: functional, organism-based
[3] = molecular target: T2, Voltage-gated N-type calcium channel alpha-1B subunit/Amyloid beta A4 precursor protein-binding family A member 1 (Homo sapiens, UniProt Q00975+Q02410); type: protein assay
T2 sequence (Q00975 whole entry): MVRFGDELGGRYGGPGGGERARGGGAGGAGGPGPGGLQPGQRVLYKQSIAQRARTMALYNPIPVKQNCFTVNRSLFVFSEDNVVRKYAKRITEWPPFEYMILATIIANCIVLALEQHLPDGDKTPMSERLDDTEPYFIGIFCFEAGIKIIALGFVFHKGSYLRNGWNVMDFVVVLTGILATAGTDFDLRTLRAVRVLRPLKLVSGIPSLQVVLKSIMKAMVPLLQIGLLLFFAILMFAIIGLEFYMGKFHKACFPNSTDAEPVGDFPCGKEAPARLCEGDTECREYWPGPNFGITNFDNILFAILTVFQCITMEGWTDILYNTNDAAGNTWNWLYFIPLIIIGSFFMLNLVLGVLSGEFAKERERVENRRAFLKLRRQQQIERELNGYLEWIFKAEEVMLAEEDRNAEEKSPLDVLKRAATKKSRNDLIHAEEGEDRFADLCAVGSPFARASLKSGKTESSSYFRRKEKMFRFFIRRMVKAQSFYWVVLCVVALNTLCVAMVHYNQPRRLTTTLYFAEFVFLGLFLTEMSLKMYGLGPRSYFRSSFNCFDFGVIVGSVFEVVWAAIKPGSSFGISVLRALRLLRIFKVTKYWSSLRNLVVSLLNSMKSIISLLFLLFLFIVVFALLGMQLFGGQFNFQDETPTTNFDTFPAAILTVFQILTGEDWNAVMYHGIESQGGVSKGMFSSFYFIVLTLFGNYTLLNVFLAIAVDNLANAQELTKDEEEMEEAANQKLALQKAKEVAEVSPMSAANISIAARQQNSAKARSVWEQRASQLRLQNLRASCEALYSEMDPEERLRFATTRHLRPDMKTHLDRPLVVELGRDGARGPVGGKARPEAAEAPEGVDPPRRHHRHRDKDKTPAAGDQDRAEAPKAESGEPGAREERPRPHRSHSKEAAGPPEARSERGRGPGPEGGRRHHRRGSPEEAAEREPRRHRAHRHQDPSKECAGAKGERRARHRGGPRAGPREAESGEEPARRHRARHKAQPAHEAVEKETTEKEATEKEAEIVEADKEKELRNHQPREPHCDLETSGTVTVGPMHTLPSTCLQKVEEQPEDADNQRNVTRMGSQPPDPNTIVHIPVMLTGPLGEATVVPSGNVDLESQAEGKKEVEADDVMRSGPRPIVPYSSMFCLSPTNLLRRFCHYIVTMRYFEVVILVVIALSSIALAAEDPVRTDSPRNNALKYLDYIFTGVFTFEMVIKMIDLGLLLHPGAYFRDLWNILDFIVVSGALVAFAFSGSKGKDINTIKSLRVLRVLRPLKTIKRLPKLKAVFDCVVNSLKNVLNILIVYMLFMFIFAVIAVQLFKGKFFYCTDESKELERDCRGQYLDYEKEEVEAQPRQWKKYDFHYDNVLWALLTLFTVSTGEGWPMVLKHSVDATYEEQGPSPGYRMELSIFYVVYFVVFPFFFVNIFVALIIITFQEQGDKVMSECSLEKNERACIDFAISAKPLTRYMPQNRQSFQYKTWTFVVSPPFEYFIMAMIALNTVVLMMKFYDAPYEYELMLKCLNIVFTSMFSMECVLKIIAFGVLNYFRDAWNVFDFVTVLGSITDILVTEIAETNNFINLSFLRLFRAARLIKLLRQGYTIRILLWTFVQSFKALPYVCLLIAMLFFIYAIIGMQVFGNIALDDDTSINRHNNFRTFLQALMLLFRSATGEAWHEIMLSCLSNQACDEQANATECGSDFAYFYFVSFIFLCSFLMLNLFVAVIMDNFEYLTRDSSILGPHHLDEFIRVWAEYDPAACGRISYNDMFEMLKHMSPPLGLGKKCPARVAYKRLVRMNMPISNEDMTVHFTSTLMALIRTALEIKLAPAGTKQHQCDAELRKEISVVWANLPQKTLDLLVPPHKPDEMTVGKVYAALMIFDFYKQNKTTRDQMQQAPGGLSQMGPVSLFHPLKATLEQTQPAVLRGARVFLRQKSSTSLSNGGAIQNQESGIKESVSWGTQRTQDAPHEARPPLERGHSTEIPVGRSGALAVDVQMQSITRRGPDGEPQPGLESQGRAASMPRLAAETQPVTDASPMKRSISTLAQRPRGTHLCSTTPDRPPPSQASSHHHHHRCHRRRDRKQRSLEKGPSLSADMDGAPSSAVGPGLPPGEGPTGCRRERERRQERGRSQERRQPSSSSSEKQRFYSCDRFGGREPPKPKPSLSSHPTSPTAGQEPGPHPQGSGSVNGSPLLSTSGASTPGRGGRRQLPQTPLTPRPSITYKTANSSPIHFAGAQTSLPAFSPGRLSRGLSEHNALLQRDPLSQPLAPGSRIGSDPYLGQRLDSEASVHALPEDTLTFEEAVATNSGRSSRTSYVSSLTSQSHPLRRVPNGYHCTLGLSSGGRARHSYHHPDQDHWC
T2 sequence (Q02410 whole entry): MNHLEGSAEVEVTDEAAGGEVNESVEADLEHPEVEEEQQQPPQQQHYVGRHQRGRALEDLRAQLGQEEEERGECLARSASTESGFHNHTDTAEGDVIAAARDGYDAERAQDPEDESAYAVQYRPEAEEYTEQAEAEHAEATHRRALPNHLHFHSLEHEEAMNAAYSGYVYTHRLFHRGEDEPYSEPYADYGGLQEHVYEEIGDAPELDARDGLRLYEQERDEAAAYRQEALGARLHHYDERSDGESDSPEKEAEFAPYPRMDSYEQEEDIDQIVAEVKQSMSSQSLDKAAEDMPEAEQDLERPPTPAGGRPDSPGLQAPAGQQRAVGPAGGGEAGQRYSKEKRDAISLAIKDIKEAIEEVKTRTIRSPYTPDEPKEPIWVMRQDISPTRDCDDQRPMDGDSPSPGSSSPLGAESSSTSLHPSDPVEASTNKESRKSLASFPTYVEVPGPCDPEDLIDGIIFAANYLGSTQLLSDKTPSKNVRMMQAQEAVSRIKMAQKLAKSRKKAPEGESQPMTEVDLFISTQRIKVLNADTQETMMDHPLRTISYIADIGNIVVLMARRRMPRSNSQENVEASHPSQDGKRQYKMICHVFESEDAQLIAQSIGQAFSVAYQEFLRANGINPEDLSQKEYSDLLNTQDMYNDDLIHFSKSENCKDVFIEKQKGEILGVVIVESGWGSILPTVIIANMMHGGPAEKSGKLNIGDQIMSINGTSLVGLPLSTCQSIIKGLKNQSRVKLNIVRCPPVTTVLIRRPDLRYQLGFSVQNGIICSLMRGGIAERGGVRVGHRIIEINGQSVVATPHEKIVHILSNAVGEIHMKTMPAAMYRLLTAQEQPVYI

Streptokinase A = molecular target: T3, Streptokinase A (Streptococcus pyogenes serotype M1, UniProt P10520); test: S. pyogenes streptokinase expression inhibitors, potency, dose response, plasminogen activation absorbance, OD405 (AID 1914); type: functional, Streptococcus pyogenes M1 GAS;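 note: secreted streptokinase activity via plasminogen activation per viability signal from cell pellet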
T3 sequence (P10520 whole entry): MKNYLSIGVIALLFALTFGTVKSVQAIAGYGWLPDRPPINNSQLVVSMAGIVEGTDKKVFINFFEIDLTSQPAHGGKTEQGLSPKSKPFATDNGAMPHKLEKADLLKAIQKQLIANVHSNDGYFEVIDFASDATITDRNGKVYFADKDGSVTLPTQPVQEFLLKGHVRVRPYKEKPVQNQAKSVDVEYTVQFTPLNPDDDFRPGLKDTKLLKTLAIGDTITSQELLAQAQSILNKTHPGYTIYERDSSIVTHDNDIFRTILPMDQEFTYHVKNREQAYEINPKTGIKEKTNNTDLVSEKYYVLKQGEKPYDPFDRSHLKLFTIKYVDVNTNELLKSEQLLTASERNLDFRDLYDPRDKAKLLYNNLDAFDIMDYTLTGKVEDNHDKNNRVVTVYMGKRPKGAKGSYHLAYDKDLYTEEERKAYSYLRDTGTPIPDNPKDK

Estrogen receptor = molecular target: T4, Estrogen receptor (Homo sapiens, UniProt P03372);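 note: potency for inhibiting coactivator peptide recruitment to the receptor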
T4 sequence (P03372 whole entry): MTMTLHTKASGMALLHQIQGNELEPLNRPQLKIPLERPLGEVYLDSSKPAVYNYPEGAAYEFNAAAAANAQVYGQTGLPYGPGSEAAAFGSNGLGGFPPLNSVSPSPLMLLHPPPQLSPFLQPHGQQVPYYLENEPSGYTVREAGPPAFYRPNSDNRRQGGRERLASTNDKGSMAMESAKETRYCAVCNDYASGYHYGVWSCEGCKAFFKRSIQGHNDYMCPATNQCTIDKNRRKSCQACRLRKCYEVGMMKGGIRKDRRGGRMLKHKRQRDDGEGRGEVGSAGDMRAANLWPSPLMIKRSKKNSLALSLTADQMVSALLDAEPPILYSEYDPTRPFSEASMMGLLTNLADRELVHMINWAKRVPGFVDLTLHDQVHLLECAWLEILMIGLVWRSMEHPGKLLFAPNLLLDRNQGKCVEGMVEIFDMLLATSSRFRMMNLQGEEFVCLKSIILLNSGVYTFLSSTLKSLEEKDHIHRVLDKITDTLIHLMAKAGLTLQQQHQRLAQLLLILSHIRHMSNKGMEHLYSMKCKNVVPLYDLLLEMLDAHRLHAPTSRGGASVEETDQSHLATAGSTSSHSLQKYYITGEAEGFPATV

[4] = molecular target: T2, Voltage-gated N-type calcium channel alpha-1B subunit/Amyloid beta A4 precursor protein-binding family A member 1; type: protein assay; remark: listed apart in the source
Streptococcus = test: Group A Streptococcus viability loss, dose response, counter-screen for streptokinase expression inhibitor project, luminescence, BacTiterGlo (AID 1915); type: functional, organism-based;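 note: potency for reduction of bacterial viability or growth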
[5] = molecular target: Voltage-dependent T-type calcium channel subunit alpha-1H (Homo sapiens, UniProt O95180); type: functional;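 note: channel activity triggered by adding a high calcium stimulation buffer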
INS1 = test: beta cell apoptosis inhibitors, cytokine rescue, dose response, luminescence, retest (AID 449756); type: functional, cell-based; details: Rattus norvegicus;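 note: cell death triggered by IL-1 beta plus TNF-alpha plus IFN-gamma mixture; protective hits raise ATP signal compared with cytokine alone wells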
Vero = test: cells; type: functional; details: Chlorocebus sabaeus
[6] = molecular target: T5, RNA-binding protein pos-1 (Caenorhabditis elegans, UniProt G5EF15); test: inhibitors of POS-1/mex-3 RNA binding, dose response, biochemical, fluorescence polarization (AID 1964);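 note: purified POS-1 fused to maltose binding protein made in E. coli; potency of compounds blocking POS-1 binding to fluorescent RNA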
T5 sequence (G5EF15 whole entry): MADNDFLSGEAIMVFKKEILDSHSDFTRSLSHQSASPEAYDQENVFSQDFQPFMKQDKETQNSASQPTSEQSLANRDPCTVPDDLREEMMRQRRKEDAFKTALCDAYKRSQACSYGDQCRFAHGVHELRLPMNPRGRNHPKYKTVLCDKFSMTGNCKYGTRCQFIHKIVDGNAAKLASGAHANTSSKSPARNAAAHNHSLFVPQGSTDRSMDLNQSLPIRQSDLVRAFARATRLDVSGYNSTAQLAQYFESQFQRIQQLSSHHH

[7] = molecular target: T6, Zinc finger protein mex-5 (Caenorhabditis elegans, UniProt Q9XUB2); test: MEX-5/TCR-2 RNA interaction inhibitors, dose response, biochemical, C. elegans, fluorescence polarization (AID 1960)
T6 sequence (Q9XUB2 whole entry): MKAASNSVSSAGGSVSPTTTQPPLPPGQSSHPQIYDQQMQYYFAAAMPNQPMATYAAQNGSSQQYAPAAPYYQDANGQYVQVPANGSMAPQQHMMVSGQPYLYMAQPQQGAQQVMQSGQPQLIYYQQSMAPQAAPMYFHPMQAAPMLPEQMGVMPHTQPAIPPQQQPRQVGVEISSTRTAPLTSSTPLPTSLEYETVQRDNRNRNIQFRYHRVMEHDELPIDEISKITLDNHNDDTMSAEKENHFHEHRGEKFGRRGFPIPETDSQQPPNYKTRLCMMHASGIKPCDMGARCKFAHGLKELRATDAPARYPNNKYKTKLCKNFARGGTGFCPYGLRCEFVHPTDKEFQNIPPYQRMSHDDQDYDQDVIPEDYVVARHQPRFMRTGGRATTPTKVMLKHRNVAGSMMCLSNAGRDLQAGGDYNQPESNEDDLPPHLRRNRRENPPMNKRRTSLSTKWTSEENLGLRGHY

HeLa = test: HeLa cell cytotoxicity, dose response, cytotoxicity control for MITF activator project, CellTiter-Glo luminescence, cherry-pick samples (AID 540259); type: functional, cell-based; details: Homo sapiens
Estrogen receptor beta [8] = molecular target: T7, Estrogen receptor beta (Homo sapiens, UniProt Q92731);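 note: recombinant ER-beta bound to coactivator SRC1 peptide in presence of estradiol agonist; inhibitors block coactivator peptide binding and lower the FRET signal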
T7 sequence (Q92731 whole entry): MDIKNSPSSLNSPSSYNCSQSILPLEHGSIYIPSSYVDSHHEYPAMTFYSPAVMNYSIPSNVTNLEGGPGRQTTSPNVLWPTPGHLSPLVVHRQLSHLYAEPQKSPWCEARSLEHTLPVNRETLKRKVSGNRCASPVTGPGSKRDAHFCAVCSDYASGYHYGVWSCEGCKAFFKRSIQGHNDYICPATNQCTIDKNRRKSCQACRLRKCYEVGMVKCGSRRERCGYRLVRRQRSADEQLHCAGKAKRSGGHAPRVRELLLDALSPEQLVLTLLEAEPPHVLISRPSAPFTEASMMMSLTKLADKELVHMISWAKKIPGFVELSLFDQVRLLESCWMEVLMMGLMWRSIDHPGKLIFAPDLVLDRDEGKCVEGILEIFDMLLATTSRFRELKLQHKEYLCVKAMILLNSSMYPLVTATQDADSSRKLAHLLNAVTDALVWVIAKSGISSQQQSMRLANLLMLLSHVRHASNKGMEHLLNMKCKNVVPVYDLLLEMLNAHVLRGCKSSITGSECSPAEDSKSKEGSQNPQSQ

Estrogen receptor beta [9] = molecular target: T7, Estrogen receptor beta; test: ERβ–SRC-3 coactivator interaction inhibitors, confirmation, orthogonal assay, biochemical, ELISA, streptavidin-HRP readout (AID 1060)

| Structure (SMILES) | IC50 [1] | EC50 [2] | IC50 (Estrogen receptor) | EC50 (Streptococcus) | AC50 (HeLa) | other results |
| --- | --- | --- | --- | --- | --- | --- |
| COc1ccc(-n2nc(C(=O)NCC(=O)NC3CCCC(C)C3C)c3ccccc3c2=O)c(OC)c1 (stereo not given) | 14.5 µM (active) | – | – | – | – | – |
| CCCCCCc1cc2cc(-c3nnc(-c4ccccc4)o3)c(=O)oc2cc1O | 11.7 µM (active) | 6.12 µM (active) | 34.9 µM (not active) | 38.7 µM (inconclusive) | – | IC50 [3]: 9.32 µM (active); EC50 (Streptokinase A): > 150 µM (not active); IC50 [4]: > 50 µM (inactive); EC50 [5]: 3 µM (active); AC50 (INS1): 7.4 µM (active); CC50 (Vero): 11.3 µM (active) |
| COc1ccc(/C=C/c2ccc3c(Br)ccc(O)c3n2)cc1 | – | 0.923 µM (active) | – | 1.66 µM (active) | 35.9 µM (active) | EC50 [6]: 117 µM (active); EC50 [7]: > 300 µM (not active) |
| Cc1snc2sc(C(=O)c3ccc(Br)cc3)c(N)c12 | – | – | 28.2 µM (active) | – | 67.4 µM (active) | IC50 (Estrogen receptor beta [8]): > 50 µM (not active); IC50 (Estrogen receptor beta [9]): 0.0857 µM (not active) |
